{"source": "patent US6875760B2", "about": "(Novo Nordisk A/S, priority 1999, dated 2005)", "key": {"human glucagon receptor": {"target": "T1, human glucagon receptor (Homo sapiens, UniProt P47871)", "T1 construct": "expressed in transfected cells; host or cells: BHK (baby hamster kidney) cells", "T1 sequence (P47871 26-477)": "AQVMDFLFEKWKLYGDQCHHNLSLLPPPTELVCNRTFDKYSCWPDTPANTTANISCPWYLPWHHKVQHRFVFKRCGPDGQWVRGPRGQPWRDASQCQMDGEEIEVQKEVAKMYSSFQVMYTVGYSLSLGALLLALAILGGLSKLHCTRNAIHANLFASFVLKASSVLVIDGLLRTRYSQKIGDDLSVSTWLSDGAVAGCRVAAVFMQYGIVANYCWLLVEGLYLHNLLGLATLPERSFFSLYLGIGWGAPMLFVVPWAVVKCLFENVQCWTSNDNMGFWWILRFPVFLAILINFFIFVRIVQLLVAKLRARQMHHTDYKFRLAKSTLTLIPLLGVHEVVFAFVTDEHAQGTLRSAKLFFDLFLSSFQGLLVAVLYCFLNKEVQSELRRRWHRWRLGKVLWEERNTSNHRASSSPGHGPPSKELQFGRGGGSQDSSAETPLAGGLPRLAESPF", "assay": "Glucagon Binding Assay (III)", "conditions": "BHK cell membranes, WGA SPA beads, 125I-glucagon; read-out: Glu Bd Assay (III) IC50", "outline": "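Membranes from BHK cells transfected with the human receptor, prepared at 4 °C, were used in a WGA-bead scintillation proximity binding format. Plates were shaken for 4 hours, left to settle 8–48 hours and then counted. Non-specific binding was defined with 500 nM glucagon.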"}, "[1]": {"target": "T2, cloned human glucagon receptor (Homo sapiens, UniProt P47871)", "T2 construct": "expressed in transfected cells; plasma membrane preparation", "T2 sequence (P47871 26-477)": "as above", "assay": "Glucagon Binding Assay (II)"}, "[2]": {"conditions": "plasma membranes of BHK cells expressing the receptor, read-out: Glu Bd Assay (II) IC50"}}, "note": "Read-outs that look alike come from different tables or passages of the source."}
{"smiles": "O=C(O)CCNC(=O)c1ccc(CN(C(=O)Nc2ccc(OC(F)(F)F)cc2)c2ccc(C3CCCCC3)cc2)cc1", "note": "[Example 179, 3-{4-[1-(4-Cyclohexylphenyl)-3-(4-trifluoromethoxyphenyl)ureidomethyl]benzoylamino}propionic acid]", "values": [{"measurement": "IC50", "setting": "human glucagon receptor", "value": 51, "unit": "nM"}, {"measurement": "IC50", "setting": "[1]; [2]", "value": 33, "unit": "nM"}]}
{"smiles": "O=C(O)CCNC(=O)c1ccc(CN(C(=O)Nc2cc(Cl)cc(Cl)c2)c2ccc(C3CCCCC3)cc2)cc1", "note": "[Example 232, 3-{4-[1-(4-Cyclohexylphenyl)-3-(3,5-dichlorophenyl)ureidomethyl]benzoylamino}propionic acid]", "values": [{"measurement": "IC50", "setting": "human glucagon receptor", "value": 30, "unit": "nM"}, {"measurement": "IC50", "setting": "[1]; [2]", "value": 17, "unit": "nM"}]}
{"smiles": "CC(C)(C)[C@H]1CC[C@H](N(Cc2ccc(C(=O)NCCC(=O)O)cc2)Cc2cc(Cl)cc(Cl)c2)CC1", "note": "[Example 580, 3-(4-{[(trans-4-tert-Butylcyclohexyl)-(3,5-dichlorobenzyl)amino]methyl}benzoylamino)propionic acid]", "values": [{"measurement": "IC50", "setting": "[1]; [2]", "value": 57, "unit": "nM"}]}
{"smiles": "O=C(O)CCNC(=O)c1ccc(CN(Cc2cccc(Br)c2)c2ccc(C3CCCCC3)cc2)cc1", "note": "[Example 581, 3-(4-{[(3-Bromobenzyl)-(4-cyclohexylphenyl)amino]methyl}benzoylamino)propionic acid]", "values": [{"measurement": "IC50", "setting": "[1]; [2]", "value": 142, "unit": "nM"}]}
{"smiles": "O=C(O)CCNC(=O)c1ccc(CN(Cc2cc(Cl)cc(Cl)c2)c2ccc(C3CCCCC3)cc2)cc1", "note": "[Example 582, 3-(4-{[(4-Cyclohexylphenyl)-(3,5-dichlorobenzyl)amino}methyl]benzoylamino)propionic acid]", "values": [{"measurement": "IC50", "setting": "[1]; [2]", "value": 108, "unit": "nM"}]}
{"smiles": "O=C(O)CCNC(=O)c1ccc(CN(Cc2cccc(Cl)c2)c2ccc(C3CCCCC3)cc2)cc1", "note": "[Example 583]", "values": [{"measurement": "IC50", "setting": "[1]; [2]", "value": 205, "unit": "nM"}]}
{"smiles": "O=C(Nc1nn[nH]n1)c1ccc(CN(Cc2cccc(Br)c2)c2ccc(C3CCCCC3)cc2)cc1", "note": "[Example 584, 4-{[(3-Bromobenzyl)-(4-cyclohexylphenyl)amino]methyl}-N-(2H-tetrazol-5-yl)benzamide]", "values": [{"measurement": "IC50", "setting": "[1]; [2]", "value": 284, "unit": "nM"}]}
{"smiles": "O=C(Nc1nn[nH]n1)c1ccc(CN(Cc2cccc(Cl)c2)c2ccc(C3CCCCC3)cc2)cc1", "note": "[Example 585, 4-{[(3-Chlorobenzyl)-(4-cyclohexylphenyl)amino]methyl}-N-(2H-tetrazol-5-yl)benzamide]", "values": [{"measurement": "IC50", "setting": "[1]; [2]", "value": 322, "unit": "nM"}]}
{"smiles": "CC(C)(C)[C@H]1CC[C@H](N(Cc2ccc(C(=O)NCCC(=O)O)cc2)C(=O)c2ccc(OC(F)(F)F)cc2)CC1", "note": "[Example 586, 3-(4-{[(trans-4-tert-Butylcyclohexyl)-(4-trifluoromethoxybenzoyl)amino]methyl}benzoylamino)propionic acid]", "values": [{"measurement": "IC50", "setting": "[1]; [2]", "value": 874, "unit": "nM"}]}
{"smiles": "CCCCOc1ccc(C(=O)NN(Cc2ccc(C(=O)NCCC(=O)O)cc2)C2Cc3ccccc3C2)cc1", "note": "[Example 587, 3-{4-[N′-(4-Butoxybenzoyl)-N-indan-2-ylhydrazinomethyl]benzoylamino}propionic acid]", "values": [{"measurement": "IC50", "setting": "[1]; [2]", "value": 692, "unit": "nM"}]}
{"smiles": "CC(C)(C)[C@H]1CC[C@@H](N(Cc2ccc(C(=O)NCCC(=O)O)cc2)NC(=O)c2cc(Cl)cc(Cl)c2)CC1", "note": "[Example 588, 3-{4-[N-(cis-4-tert-Butylcyclohexyl)-N′-(3,5-dichlorobenzoyl)hydrazinomethyl]benzoylamino}propionic acid]", "values": [{"measurement": "IC50", "setting": "[1]; [2]", "value": 75, "unit": "nM"}]}
{"smiles": "CC(C)(C)[C@H]1CC[C@@H](N(Cc2ccc(C(=O)NCCC(=O)O)cc2)NC(=O)c2ccc(F)c(F)c2)CC1", "note": "[Example 589, 3-{4-[N-(cis-4-tert-Butylcyclohexyl)-N′-(3,4-difluorobenzoyl)hydrazinomethyl]benzoylamino}propionic acid]", "values": [{"measurement": "IC50", "setting": "[1]; [2]", "value": 541, "unit": "nM"}]}
{"smiles": "CC(C)(C)[C@H]1CC[C@@H](N(Cc2ccc(C(=O)NCCC(=O)O)cc2)NC(=O)c2cccc(OC(F)(F)F)c2)CC1", "note": "[Example 590, 3-{4-[N-(cis-4-tert-Butylcyclohexyl)-N′-(3-trifluoromethoxybenzoyl)hydrazinomethyl]benzoylamino}propionic acid]", "values": [{"measurement": "IC50", "setting": "[1]; [2]", "value": 224, "unit": "nM"}]}
{"smiles": "Cc1cc(C)c(Cc2ccc(C(=O)NN(Cc3ccc(C(=O)NCCC(=O)O)cc3)[C@H]3CC[C@@H](C(C)(C)C)CC3)o2)c(C)c1", "note": "[Example 591, 3-(4-{N-(cis-4-tert-Butylcyclohexyl)-N′-[5-(2,4,6-trimethylbenzyl)furan-2-carbonyl]hydrazinomethyl}benzoylamino)propionic acid]", "values": [{"measurement": "IC50", "setting": "[1]; [2]", "value": 4, "unit": "nM"}]}
{"smiles": "Cc1cc(C)c(Cc2ccc(C(=O)NN(Cc3ccc(C(=O)NCCC(=O)O)cc3)c3ccc(C4CCCCC4)cc3)o2)c(C)c1", "note": "[Example 592, 3-(4-{N-(4-Cyclohexylphenyl)-N′-[5-(2,4,6-trimethylbenzyl)furan-2-carbonyl]hydrazinomethyl}benzoylamino)propionic acid]", "values": [{"measurement": "IC50", "setting": "[1]; [2]", "value": 16, "unit": "nM"}]}
{"smiles": "O=C(Nc1nn[nH]n1)c1ccc(CN(C(=O)Nc2cc(Cl)cc(Cl)c2)c2ccc(C3=CCCCC3)cc2)cc1", "note": "[Example 593, 4-[1-(4-Cyclohex-1-enylphenyl)-3-(3,5-dichlorophenyl)ureidomethyl]-N-(2H-tetrazol-5-yl)benzamide]", "values": [{"measurement": "IC50", "setting": "[1]; [2]", "value": 8, "unit": "nM"}]}
{"smiles": "O=C(Nc1nn[nH]n1)c1ccc(CN(C(=O)Nc2ccc3[nH]ccc3c2)c2ccc(C3CCCCC3)cc2)cc1", "note": "[Example 594, 4-{1-(4-Cyclohexylphenyl)-3-(1H-indol-5-yl)ureidomethyl]-N-(2H-tetrazol-5-yl)benzamide]", "values": [{"measurement": "IC50", "setting": "[1]; [2]", "value": 354, "unit": "nM"}]}
{"smiles": "O=C(Nc1nn[nH]n1)c1ccc(CN(C(=O)NCc2ccc(Cl)c(Cl)c2)c2ccc(C3CCCCC3)cc2)cc1", "note": "[Example 595, 4-[1-(4-Cyclohexylphenyl)-3-(3,4-dichlorobenzyl)ureidomethyl}-N-(2H-tetrazol-5-yl)benzamide]", "values": [{"measurement": "IC50", "setting": "[1]; [2]", "value": 39, "unit": "nM"}]}
{"smiles": "C[C@H](NC(=O)N(Cc1ccc(C(=O)Nc2nn[nH]n2)cc1)c1ccc(C2CCCCC2)cc1)c1ccccc1", "note": "[Example 596, 4-[1-(4-Cyclohexylphenyl)-3-((1S)-1-phenylethyl)ureidomethyl]-N-(2H-tetrazol-5-yl)benzamide]", "values": [{"measurement": "IC50", "setting": "[1]; [2]", "value": 112, "unit": "nM"}]}
{"smiles": "N#Cc1ccc(NC(=O)N(Cc2ccc(C(=O)Nc3nn[nH]n3)cc2)c2ccc(C3CCCCC3)cc2)cc1C(F)(F)F", "note": "[Example 597, 4-[1-(4-Cyclohexylphenyl)-3-(4-cyano-3-trifluoromethylphenyl)ureidomethyl]-N-(2H-tetrazol-5-yl)benzamide]", "values": [{"measurement": "IC50", "setting": "[1]; [2]", "value": 7, "unit": "nM"}]}
{"smiles": "C[C@@H](NC(=O)N(Cc1ccc(C(=O)Nc2nn[nH]n2)cc1)c1ccc(C2CCCCC2)cc1)c1ccccc1", "note": "[Example 598, 4-[1-(4-Cyclohexylphenyl)-3-((1R)-1-phenylethyl)ureidomethyl]-N-(2H-tetrazol-5-yl)benzamide]", "values": [{"measurement": "IC50", "setting": "[1]; [2]", "value": 207, "unit": "nM"}]}
{"smiles": "O=C(O)CCNC(=O)c1ccc(CN(C(=O)Nc2cc(Cl)cc(Cl)c2)c2ccc(C3=CCCCC3)cc2)cc1", "note": "[Example 605, 3-{4-[1-(4-Cyclohex-1-enylphenyl)-3-(3,5-dichlorophenyl)ureidomethyl]benzoylamino}propionic acid]", "values": [{"measurement": "IC50", "setting": "[1]; [2]", "value": 15, "unit": "nM"}]}
{"smiles": "O=C(O)CCNC(=O)c1ccc(CN(C(=O)NCc2ccc(Cl)c(Cl)c2)c2ccc(C3CCCCC3)cc2)cc1", "note": "[Example 606, 3-{4-[1-(4-Cyclohexylphenyl)-3-(3,4-dichlorobenzyl)ureidomethyl]benzoylamino}propionic acid]", "values": [{"measurement": "IC50", "setting": "[1]; [2]", "value": 98, "unit": "nM"}]}
{"smiles": "O=C(O)CCNC(=O)c1ccc(CN(C(=O)Nc2ccc3[nH]ccc3c2)c2ccc(C3CCCCC3)cc2)cc1", "note": "[Example 607, 3-{4-[1-(4-Cyclohexylphenyl)-3-(1H-indol-5-yl)ureidomethyl]benzoylamino}propionic acid]", "values": [{"measurement": "IC50", "setting": "[1]; [2]", "value": 1850, "unit": "nM"}]}
{"smiles": "C[C@@H](NC(=O)N(Cc1ccc(C(=O)NCCC(=O)O)cc1)c1ccc(C2CCCCC2)cc1)c1ccccc1", "note": "[Example 608, 3-{4-[1-(4-Cyclohexylphenyl)-3-((1R)-1-phenylethyl)ureidomethyl]benzoylamino}propionic acid]", "values": [{"measurement": "IC50", "setting": "[1]; [2]", "value": 677, "unit": "nM"}]}
{"smiles": "C[C@H](NC(=O)N(Cc1ccc(C(=O)NCCC(=O)O)cc1)c1ccc(C2CCCCC2)cc1)c1ccccc1", "note": "[Example 609, 3-{4-[1-(4-Cyclohexylphenyl)-3-((1S)-1-phenylethyl)ureidomethyl]benzoylamino}propionic acid]", "values": [{"measurement": "IC50", "setting": "[1]; [2]", "value": 726, "unit": "nM"}]}
{"smiles": "C[C@@H](NC(=O)N(Cc1ccc(C(=O)NCCC(=O)O)cc1)c1ccc(C2CCCCC2)cc1)c1ccc2ccccc2c1", "note": "[Example 610, 3-{4-[1-(4-Cyclohexylphenyl)-3-[(1R)-1-(2-naphthyl)ethyl]ureidomethyl]benzoylamino}propionic acid]", "values": [{"measurement": "IC50", "setting": "[1]; [2]", "value": 118, "unit": "nM"}]}
{"smiles": "CCOC(=O)C(C)(C)C1CCC(N(Cc2ccc(C(=O)NCCC(=O)O)cc2)C(=O)Nc2ccc(OC(F)(F)F)cc2)CC1", "note": "(centres unmarked) [Example 611, 2-{4-[1-[4-(2-Carboxyethylcarbamoyl)benzyl]-3-(4-trifluoromethoxyphenyl)ureido]cyclohexyl}-2-methylpropionic acid ethyl ester]", "values": [{"measurement": "IC50", "setting": "[1]; [2]", "value": 437, "unit": "nM"}]}
{"smiles": "CC(C)(C)C1CCC(N(Cc2ccc(C(=O)NCCC(=O)O)cn2)C(=O)Nc2ccc(OC(F)(F)F)cc2)CC1", "note": "(centres unmarked) [Example 612, 3-({6-[1-(4-tert-Butylcyclohexyl)-3-(4-trifluoromethoxyphenyl)ureidomethyl]pyridine-3-carbonyl}amino)propionic acid]", "values": [{"measurement": "IC50", "setting": "[1]; [2]", "value": 161, "unit": "nM"}]}
{"smiles": "CC(C)(C)[C@H]1CC[C@H](N(Cc2ccc(C(=O)NCCC(=O)O)cc2)Cc2cccc(S(C)(=O)=O)c2)CC1", "note": "[Example 613, 3-(4-{[(trans-4-tert-Butylcyclohexyl)-(3-methylsulfonylbenzyl)amino]methyl}benzoylamino)propionic acid]", "values": [{"measurement": "IC50", "setting": "[1]; [2]", "value": 578, "unit": "nM"}]}
{"smiles": "CC(C)(C)C1CCC(N(Cc2ccc(C(=O)NCCC(=O)O)cc2)C(=O)Nc2ccc(Oc3ccccc3)cc2)CC1", "note": "(centres unmarked) [drawing 1168]", "values": [{"measurement": "IC50", "setting": "[1]; [2]", "value": 121, "unit": "nM"}]}
{"smiles": "CC(C)(C)C1CCC(N(Cc2ccc(C(=O)NCCC(=O)O)cc2)C(=O)Nc2ccc(Cl)c(Cl)c2)CC1", "note": "(centres unmarked) [drawing 1169]", "values": [{"measurement": "IC50", "setting": "[1]", "value": 226, "unit": "nM"}]}
{"smiles": "CC(C)c1ccc(NC(=O)N(Cc2ccc(C(=O)NCCC(=O)O)cc2)C2CCC(C(C)(C)C)CC2)cc1", "note": "(centres unmarked) [drawing 1170]", "values": [{"measurement": "IC50", "setting": "[1]", "value": 35, "unit": "nM"}]}
{"smiles": "CC(C)(C)C1CCC(N(Cc2ccc(C(=O)NCCC(=O)O)cc2)NC(=O)c2ccc(OC(F)(F)F)cc2)CC1", "note": "(centres unmarked) [drawing 1171]", "values": [{"measurement": "IC50", "setting": "[1]; [2]", "value": 108, "unit": "nM"}]}
{"smiles": "O=C(O)CCNC(=O)c1ccc(CN(C(=O)Nc2ccc(OC(F)(F)F)cc2)C2CCC3CCCCC3C2)cc1", "note": "(centres unmarked) [drawing 1173]", "values": [{"measurement": "IC50", "setting": "[1]; [2]", "value": 426, "unit": "nM"}]}
{"smiles": "CCCCc1ccc(N(Cc2ccc(C(=O)NCCC(=O)O)cc2)C(=O)Nc2ccc(OC(F)(F)F)cc2)cc1", "note": "[drawing 1186]", "values": [{"measurement": "IC50", "setting": "[1]; [2]", "value": 13, "unit": "nM"}]}
